Data: patent US20190197375A1, “TRACEABLE METALLIC PRODUCTS AND METALLIC SUPPORT FOR NANOSTORAGE” (9163-0384 QUEBÉC INC., priority 2013, published 2019)

What was measured:
[1] = system: S. aureus; assay: Antibacterial activity of anodized disk impregnated with benzalkonium chloride, deposited 5 min on agar plate lawn; type: cell-based; conditions: anodized disk soaked 10 min, FIG. 4
Description: Anodized and non-anodized aluminum disks were compared for incorporation/storage and recovery/diffusion of a chemical antibacterial compound. Briefly, anodized and non-anodized disks were prepared as described hereinbefore. The disks were then impregnated or not with benzalkonium chloride (an antibacterial) by soaking 10 min at room temperature and rinsed several times with water.
The disks were then tested for diffusion of the antimicrobial benzalkonium by measuring their respective antibacterial activity when deposited for 5 min on an agar plate lawn of S. aureus. […] This confirms incorporation and subsequent release of the antibacterial chemical from the anodized porous surface layer.

[2] = system: S. aureus; assay: Long term conservation: antibacterial activity of impregnated anodized aluminum disks after storage; type: cell-based; conditions: disks impregnated 4 years ago, 2.12% w/v; deposition 5 min on agar plate lawn
Description: An experiment was designed to evaluate the presence and integrity of samples stored in the anodized metallic support.
The antimicrobial activity was measured by diffusion of the antimicrobial benzalkonium following deposition for 5 min on an agar plate lawn of S. aureus (results not shown).

## benzalkonium chloride
[1]
  Inhibition of bacterial growth by impregnated anodized disk: successfully inhibited bacterial growth
[2]
  Antibacterial activity after storage in anodized aluminum disks: still possible to measure antibacterial activity
